Legend:
Experiment in all cases: relative viability (nuclei count vs DMSO), 5 days (fraction); higher = more cells survive
Ruxolitinib + Alpelisib = compound: N#CC[C@H](C1CCCC1)n1cc(-c2ncnc3[nH]ccc23)cn1 [Ruxolitinib] + Cc1nc(NC(=O)N2CCC[C@H]2C(N)=O)sc1-c1ccnc(C(C)(C)C(F)(F)F)c1 [Alpelisib] (partner 2 µM)
In short: (§1)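 Five library-drug doses in √10 steps were combined with a fixed anchor-drug dose, or a single drug was given alone, by pin tool to lung cancer cell lines in 1536-well plates the day after seeding. Nuclei were stained and counted after 5 days. Relative viability is the nuclei count in treated wells over that in vehicle wells, taken as the median of duplicate plates.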

Ruxolitinib + Decitabine = compound: N#CC[C@H](C1CCCC1)n1cc(-c2ncnc3[nH]ccc23)cn1 [Ruxolitinib] + Nc1ncn([C@H]2C[C@H](O)[C@@H](CO)O2)c(=O)n1 [Decitabine] (partner 2 µM)
In short: as §1

Vismodegib + Tozasertib = compound: CS(=O)(=O)c1ccc(C(=O)Nc2ccc(Cl)c(-c3ccccn3)c2)c(Cl)c1 [Vismodegib] + Cc1cc(Nc2cc(N3CCN(C)CC3)nc(Sc3ccc(NC(=O)C4CC4)cc3)n2)n[nH]1 [Tozasertib] (partner 0.1 µM)
In short: as §1

[1] = compound: N#CC[C@H](C1CCCC1)n1cc(-c2ncnc3[nH]ccc23)cn1 [Ruxolitinib] + CC(=O)c1c(C)c2cnc(Nc3ccc(N4CCNCC4)cn3)nc2n(C2CCCC2)c1=O [Palbociclib] (partner 0.5 µM)
In short: as §1

Cell Line	relative viability (Ruxolitinib + Alpelisib; first compound 0.08 µM)	relative viability (Ruxolitinib + Alpelisib; first compound 0.253 µM)	relative viability (Ruxolitinib + Alpelisib; first compound 0.8 µM)	relative viability (Ruxolitinib + Alpelisib; first compound 2.53 µM)	relative viability (Ruxolitinib + Alpelisib; first compound 8 µM)	relative viability (Ruxolitinib + Decitabine; first compound 0.08 µM)	relative viability (Ruxolitinib + Decitabine; first compound 0.253 µM)	relative viability (Ruxolitinib + Decitabine; first compound 0.8 µM)	relative viability (Ruxolitinib + Decitabine; first compound 2.53 µM)	relative viability (Ruxolitinib + Decitabine; first compound 8 µM)	relative viability (Vismodegib + Tozasertib; first compound 0.08 µM)	relative viability (Vismodegib + Tozasertib; first compound 0.253 µM)	relative viability (Vismodegib + Tozasertib; first compound 0.8 µM)	relative viability (Vismodegib + Tozasertib; first compound 2.53 µM)	relative viability (Vismodegib + Tozasertib; first compound 8 µM)	relative viability ([1]; first compound 0.08 µM)	relative viability ([1]; first compound 0.253 µM)	relative viability ([1]; first compound 0.8 µM)	relative viability ([1]; first compound 2.53 µM)	relative viability ([1]; first compound 8 µM)
NCI-H2126	0.773	0.767	0.782	0.807	0.789	0.559	0.594	0.584	0.631	0.635	0.841	0.814	0.849	0.772	0.794	0.382	0.333	0.371	0.363	0.363
NCI-H2342	–	–	–	–	–	0.706	0.665	0.777	0.783	0.667	0.508	0.492	0.477	0.511	0.461	0.53	0.496	0.49	0.543	0.541
ChaGo-K-1	–	–	–	–	–	0.515	0.529	0.52	0.447	0.478	0.239	0.193	0.214	0.236	0.212	0.909	0.924	0.906	0.8	0.789
NCI-H1299	1.05	1.08	1.05	0.949	0.996	–	–	–	–	–	–	–	–	–	–	–	–	–	–	–
NCI-H1703	0.316	0.343	0.382	0.19	0.283	–	–	–	–	–	–	–	–	–	–	–	–	–	–	–
NCI-H1792	0.652	0.687	0.651	0.515	0.714	0.516	0.544	0.602	0.425	0.476	–	–	–	–	–	0.595	0.565	0.631	0.632	0.575
NCI-H522	–	–	–	–	–	0.694	0.695	0.669	0.701	0.654	0.534	0.508	0.529	0.548	0.577	1.12	1.09	1.16	0.869	0.933
NCI-H1650	–	–	–	–	–	0.321	0.338	0.438	0.418	0.442	0.413	0.365	0.315	0.286	0.34	0.333	0.345	0.395	0.287	0.356
SW 900	–	–	–	–	–	0.426	0.495	0.475	0.445	0.41	0.52	0.574	0.56	0.426	0.435	0.477	0.589	0.625	0.624	0.532
CAL-12T	1.26	1.31	1.25	1.05	0.78	–	–	–	–	–	0.301	0.28	0.321	0.35	0.328	0.316	0.334	0.461	0.363	0.223
